Reference: paper PMC10376059, “New NADPH Oxidase 2 Inhibitors Display Potent Activity against Oxidative Stress by Targeting p22^phox-p47^phox Interactions” (Antioxidants, 2023)

Legend:
[1] = molecular target: T1, NOX2 (Homo sapiens, UniProt P14598); experiment: NADPH oxidase (NOX2) inhibition, DCF fluorescence in PMA-activated neutrophil-differentiated HL-60 cells; type: cell-based; conditions: for IC50: neutrophil-differentiated HL-60 cells, PMA 0.8 µM, DCF fluorescence, 0.05 to 50 µM
T1 construct: HL-60 cells expressed the components of NOX2, including gp91, p22^phox, p47^phox, and p67^phox; endogenous in cells; whole cells in A1, membrane preparations in A3 and A4
T1 sequence (P14598 1-390): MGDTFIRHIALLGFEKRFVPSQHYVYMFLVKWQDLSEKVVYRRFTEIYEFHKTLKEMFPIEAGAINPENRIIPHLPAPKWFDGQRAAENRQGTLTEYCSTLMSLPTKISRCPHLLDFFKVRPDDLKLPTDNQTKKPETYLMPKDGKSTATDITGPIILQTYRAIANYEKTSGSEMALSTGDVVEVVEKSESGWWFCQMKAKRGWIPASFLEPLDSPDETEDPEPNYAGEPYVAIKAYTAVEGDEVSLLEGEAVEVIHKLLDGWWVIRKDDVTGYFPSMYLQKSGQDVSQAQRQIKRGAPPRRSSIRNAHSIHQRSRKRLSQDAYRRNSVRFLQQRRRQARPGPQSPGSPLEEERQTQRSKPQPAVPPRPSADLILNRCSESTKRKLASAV
Experimental: The differentiation of HL-60 cells to neutrophils was performed after reaching a concentration of between 2 × 10^6 and 5 × 10^6 cells/mL in the differentiation medium: RPMI 1640 medium; 10% FBS; 100 IU/mL of penicillin/streptomycin; and 1.3% DMSO for 7 days, replenishing the differentiation medium every 2 days.
The 2′,7′-dichlorofluorescein (DCF) fluorescence analysis was used to determine NADPH oxidase activity in neutrophil-differentiated HL-60 cells. The method, based on a fluorimetric assay, was adapted from Boly et al.. Briefly, 1 × 10^6 neutrophil-differentiated HL-60 cells/mL were incubated for 45 min. at 37 °C in darkness with DCF-DA (1 mg/mL). The cell suspension was then transferred to a 15 mL conical tube and centrifuged at 330× g × 10 min at 37 °C. After the supernatant was removed, the cells were re-suspended in Hanks balanced saline buffer (HBSS, Sigma-Aldrich, St. Louis, MO, USA) and transferred to dark 96-well plates with a flat glass bottom (Thermo Scientific Nunc 96 microwell® black, Optical Botton # 1.5 Cover Glass Base, Thermo Fisher Scientific). Then, 200 μL of cell suspension per well were incubated at 37 °C for 30 min with the indole heteroaryl-acrylonitriles at increasing concentrations (0.05 to 50 μM). […] Finally, PMA (0.8 μM) was added to each well for 10 min. to generate the activation of NOX2. The generation of the DCF fluorescence product was monitored in an automatic microplate reader (FLx800, BioTek Instruments, Winooski, VT, USA) at 1-min intervals at 37 °C for 1 h, using an excitation wavelength of 485 nm and an emission wavelength of 555 nm. The ability to inhibit ROS production by activated neutrophil-differentiated HL-60 cells was compared against the different controls. A control was performed with cells activated by PMA in the presence of DMSO and established as having 100% of the ROS-induced fluorescence. Inhibition control was performed in the presence of VAS2870 (20 µM) and activated by PMA. Another control (NA, not activated) was done with cells in the absence of PMA and the indole heteroaryl-acrylonitriles.
All the experiments were performed in triplicate, using three different cell preparations, and the data were reported as mean ± s.e.m. For the determination of the IC50 of the indole heteroaryl-acrylonitriles, concentration-response curves (0.05 to 50 μM) were constructed. IC50 values were given as the mean ± standard deviation for at least three independent assays. The data were analyzed using one- and two-way ANOVA. A value of p < 0.05 was considered statistically significant. Statistical analyses were performed using the program GraphPad Prism® version 6.00, San Diego, CA, USA.

[2] = MTT cytotoxicity assay; type: cell-based, human; conditions: human; HL-60 cells, 24 h, 10 mM, MTT; read-out: cell viability
Experimental: (§1) To verify the cytotoxicity of the acrylonitrile derivatives, the MTT reduction method was performed. Briefly, HL-60 cells were seeded in a flat-bottomed 96-well plate at a density of 10,000 cells per well. […] In a second series of experiments, cells were incubated under the same conditions but for 72 h. Etoposide was used as a positive control. Ten μL of MTT was added at a final concentration of 0.5 mg/mL, incubated at 37 °C for 4 h, and then solubilized with 10% SDS in 0.1 mM HCl and incubated overnight at 37 °C. Finally, a blue-colored compound (formazan) formation was measured at 570 nm in a multiplate reader (StatFax 4200, Awareness Technology, Inc., Palm City, FL, USA). The viability percentage was obtained as follows: Viability % = [treated cells DO × 100]/[DO cells control].

[3] = system: HL-60 cells; experiment: MTT cytotoxicity assay; type: cell-based, human; conditions: 72 h, 0.01 µM to 100 µM, MTT
Experimental: as §1

[4] = DPPH radical scavenging activity; type: physicochemical
Experimental: The newly synthesized compounds were evaluated for 2,2-diphenyl-1-picrylhydrazyl […] free radical scavenging activity. The reduction and stabilization of DPPH by antioxidant compounds lead to discoloration, resulting in a decrease in absorbance at 517 nm, which was expressed as a percentage of the radical solution at a given concentration of discoloration. The heteroarylacrylonitrile derivatives were re-suspended in a minimum of DMSO at a final concentration of 5 mg/mL (stock solution). From these, they were diluted to concentrations of 1000, 500, and 100 μg/mL. These solutions were mixed with a methanol solution of DPPH (20 μg/mL) for 5 min. Each compound was evaluated in triplicate; absorbance at 517 nm in a UNICAM UV/visible spectrophotometer Helios-α (Thermo Electron Corporation, Waltham, MA USA) was measured by subtracting the solvent absorbance and comparing the resulting value with that of a blank sample. The percentage of discoloration was established according to the following formula: % Radical removal or discoloration = (1 − (AM − ABM)/AC) × 100, where AM is the absorbance of the sample compound, ABM is the absorbance of the sample blank, and AC is the absorbance of the control. The degree of discoloration indicates the efficacy of the compounds studied as free radical scavengers; therefore, a percentage of discoloration of 100 indicates the maximum radical scavenging capacity and a value close to 0 indicates a zero radical scavenging capacity. Quercetin was used as a reference compound in a concentration range of 1.25 to 7.5 μg/mL.

| SMILES | IC50 [1] [µM] | further results |
| --- | --- | --- |
| N#C/C(=C\c1ccc(-c2ccc(Cl)cc2)o1)C(=O)c1c[nH]c2ccccc12 [Compound C1] | 21.5 ± 0.3 | viability at 24 h, 10 mM [2]: 60% |
| Cc1nn(-c2ccccc2)c(Cl)c1/C=C(\C#N)C(=O)c1c[nH]c2ccccc12 [Compound C2] | 7.2 ± 0.3 |  |
| N#C/C(=C\c1ccc(-c2ccccc2)cc1)C(=O)c1c[nH]c2ccccc12 [Compound C3] |  | cytotoxicity (in words) [3]: non-cytotoxic |
| N#C/C(=C\c1ccc(N2CCOCC2)cc1)C(=O)c1c[nH]c2ccccc12 [Compound C4] | 7.1 ± 0.4 | antioxidant capacity, DPPH discoloration (in words) [4]: showed antioxidant capacity only at very high concentrations; viability at 24 h, 10 mM [2]: 60% |
| N#C/C(=C\c1cc(-c2ccc(F)cc2)on1)C(=O)c1c[nH]c2ccccc12 [Compound C5] | 6.2 ± 0.4 |  |
| N#C/C(=C\c1ccc(-c2ccc([N+](=O)[O-])cc2)o1)C(=O)c1c[nH]c2ccccc12 [Compound C7] | 68.1 ± 1.2 |  |
| CC(C)c1ccc2occ(/C=C(\C#N)C(=O)c3c[nH]c4ccccc34)c(=O)c2c1 [Compound C8] | 17.1 ± 0.2 | antioxidant capacity, DPPH discoloration (in words) [4]: showed antioxidant capacity only at very high concentrations; viability at 24 h, 10 mM [2]: 60% |
| Cc1ccc2occ(/C=C(\C#N)C(=O)c3c[nH]c4ccccc34)c(=O)c2c1 [Compound C9] | 4.7 ± 0.3 | inhibition of NOX2-derived ROS production (in words) ([1]; PMA-activated HL-60 cells, 0.05 µM to 50 µM): exhibited concentration-dependent inhibition of NOX2; antioxidant capacity, DPPH discoloration (in words) [4]: showed antioxidant capacity only at very high concentrations; cytotoxicity (in words) [3]: non-cytotoxic |
| N#C/C(=C\c1coc2ccccc2c1=O)C(=O)c1c[nH]c2ccccc12 [Compound C10] | 9.4 ± 0.3 | viability at 24 h, 10 mM [2]: 60% |
| CCc1ccc2occ(/C=C(\C#N)C(=O)c3c[nH]c4ccccc34)c(=O)c2c1 [Compound C11] | 19.9 ± 0.2 |  |
| N#C/C(=C\c1c(N)oc2ccccc2c1=O)C(=O)c1c[nH]c2ccccc12 [Compound C12] | 21.1 ± 0.2 |  |
| N#C/C(=C\c1cccnc1)C(=O)c1c[nH]c2ccccc12 [Compound C13] | 16.3 ± 0.2 |  |
| CC(C)(C)OC(=O)N1CCN(c2ccc(/C=C(\C#N)C(=O)c3c[nH]c4ccccc34)cc2)CC1 [Compound C15] | 30.4 ± 0.3 |  |
| N#C/C(=C\c1ccco1)C(=O)c1c[nH]c2ccccc12 [Compound C16] | 82.7 ± 0.2 |  |
| CC(=O)OCc1ccc(/C=C(\C#N)C(=O)c2c[nH]c3ccccc23)o1 [Compound C17] | 19.7 ± 0.2 |  |
| N#C/C(=C\c1ncc[nH]1)C(=O)c1c[nH]c2ccccc12 [Compound C18] | 51.3 ± 0.2 |  |
| Cn1ccnc1/C=C(\C#N)C(=O)c1c[nH]c2ccccc12 [Compound C19] | 69.3 ± 0.2 |  |
